7 molecules from ChEMBL document CHEMBL1142641, “New isomalabaricane derivatives from a new species of Jaspis sponge collected at the Vanuatu islands” (J Nat Prod, 2000) can be followed below.

Bounds are passed on as bounds.

For orientation: IC50 means the concentration that inhibits the measured activity by half.

A short description of the test: Cytotoxicity against mouse […] cells. It is filed as functional, cell-based.

`COC(=O)[C@]1(C)[C@@H]2CC[C@]3(C)\C(=C(C)/C=C/C=C(\C)C=O)C(=O)C[C@@H]3[C@@]2(C)CC[C@H]1OC(C)=O` returned an IC50 of over 3.3 µg/mL.
With `COC(=O)[C@]1(C)[C@@H]2CC[C@]3(C)\C(=C(C)/C=C/C=C(C)/C=C/C=O)C(=O)C[C@@H]3[C@@]2(C)CC[C@H]1OC(C)=O`, the IC50 is over 3.3 µg/mL.
`COC(=O)/C=C/C(C)=C1/C(=O)C[C@@H]2[C@@]3(C)CC[C@@H](OC(C)=O)[C@](C)(C(=O)OC)[C@@H]3CC[C@]12C` [JASPIFEROIC ACID B DIMETHYL ESTER] had an IC50 of over 3.3 µg/mL.
For the molecule `COC(=O)[C@]1(C)[C@@H]2CC[C@]3(C)/C(=C(/C)C=O)C(=O)C[C@@H]3[C@@]2(C)CC[C@H]1OC(C)=O`, the half-maximal inhibitory concentration (IC50) is over 3.3 µg/mL.
The value for `COC(=O)[C@]1(C)[C@@H]2CC[C@]3(C)\C(=C(C)/C=C/C=C(C)/C=C/C(OC)C(C)(C)O)C(=O)C[C@@H]3[C@@]2(C)CC[C@H]1OC(C)=O` (some centres not stated) [GLOBOSTELLATIC ACD C METHYL ESTER] was over 3.3 µg/mL.
As to `COC(=O)/C(C)=C1\C(=O)C[C@@H]2[C@@]3(C)CC[C@@H](OC(C)=O)[C@](C)(C(=O)OC)[C@@H]3CC[C@]12C` [JASPIFEROIC ACID A DIMETHYL ESTER], the IC50 was over 3.3 µg/mL.
Take `COC(=O)[C@]1(C)[C@@H]2CC[C@]3(C)\C(=C(C)/C=C/C=C(\C)C(/C=C/C(C)(C)O)OC)C(=O)C[C@@H]3[C@@]2(C)CC[C@H]1OC(C)=O` (some centres not stated) [GLOBOSTELLATIC ACD B METHYL ESTER]: the IC50 is over 3.3 µg/mL.
